Data on one compound can be found in patent publication US20070280919A1, “Produce-treatment composition and method for treatment of fresh produce” (priority 2006, published 2007).

The subject of the assay is green mold (P. digitatum). Kind of assay: In vivo efficacy test on inoculated fruit, green mold incidence (FIG. 1). The note with it: fruit puncture-inoculated with P. digitatum, imazalil at 0.1%. Also noted: species or system Penicillium digitatum. Here is the method: In vivo efficacy tests for the formulation of Table 7 were carried out on Fallglo tangerines, pineapples, and Valencia oranges inoculated with Penicillium digtatum using a puncture method, in which the fruit was punctured with the tip of a 1 mm×1 mm probe that had been dipped into the inoculum solution (1×10^6 fungal spores/ml). The fruit was then subject to either a dip treatment procedure or a packingline dip treatment procedure twenty to twenty-four hours after inoculation. The dip treatment procedure involved dipping the inoculated fruit into the composition for one (1) minute. The packingline dip treatment procedure involved treating the fruit with suspensions or wax containing the produce-treatment composition using a non-recovery drip system through a simulated commercial packing line. Fruits were rotated on brush beds and contacted with chemicals for 15 to 20 seconds, and then dried at 50-54° C. for 1-2 minutes. In both procedures, the treated fruit was incubated at 21° C. with 95% relative humidity. FIG. 1 depicts a bar graph reporting the efficacy of the produce-treatment composition of Table 7 to green mold (P. digitatum), and comparing the results to those of a control (distilled water) and 0.1% imazalil. The inventive formulation reduced green-mold incidences to […], relative to untreated produce. […]

In turn, `C=CCOC(Cn1ccnc1)c1ccc(Cl)cc1Cl` (centres unmarked) [imazalil] registered a green-mold incidences (treated 20-24 h later, incubated at 21° C., 95% RH) of 51%. Besides, where the note is “relative to untreated produce”, the “reduction of green-mold incidences” value is 49%.
